Experimental findings from patent EP4796548A1, “PROTEOLYSIS-TARGETING CHIMERA COMPOUND FOR DEGRADING IRAK4 AND USE THEREOF” (Dovetree Medicines Unus, Inc., priority 2023, dated 2025) are described below.

Each structure is given as a SMILES string.

In experiment [1] the target is T1, IRAK4 (Homo sapiens, UniProt Q9NWZ3).
T1 sequence (Q9NWZ3 1-460): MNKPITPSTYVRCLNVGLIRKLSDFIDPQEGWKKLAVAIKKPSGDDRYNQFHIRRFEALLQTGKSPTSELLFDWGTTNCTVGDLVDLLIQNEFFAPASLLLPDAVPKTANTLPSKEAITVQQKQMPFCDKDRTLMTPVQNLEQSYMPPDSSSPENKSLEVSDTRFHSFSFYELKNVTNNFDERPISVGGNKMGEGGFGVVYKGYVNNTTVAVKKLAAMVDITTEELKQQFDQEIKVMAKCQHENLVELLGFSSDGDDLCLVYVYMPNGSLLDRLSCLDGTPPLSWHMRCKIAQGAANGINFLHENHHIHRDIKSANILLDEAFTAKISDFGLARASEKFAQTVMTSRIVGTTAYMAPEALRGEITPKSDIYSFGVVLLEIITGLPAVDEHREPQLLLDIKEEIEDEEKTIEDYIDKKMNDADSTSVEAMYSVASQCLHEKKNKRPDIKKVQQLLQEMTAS
As to the kind of experiment: detection of proteolysis by Hibit fluorescence (IRAK4 degradation). The settings on record: for Dmax: HEK-293T; for DC50: Hibit, HEK293T cells transfected with HiBiT-tagged IRAK4 plasmid, 24 hours incubation. In kind it is cell-based. The arrangement: host or cells: HEK293T cells (ATCC). Here is the method:
Using the HiBiT tag technology, the sequence containing the HiBiT tag (Seq. ID. No. 1, 5'-[…]-3', Beijing Tsingke Biotech Co., Ltd.) was ligated to the IRAK4 plasmid (Seq. ID. No. 2, 5'-Eco[…] NOT1-3', Beijing Tsingke Biotech Co., Ltd.). The plasmid was transfected into HEK293T cells (ATCC), and the HiBiT […] was measured to characterize the compound-induced IRAK4 degradation. 300,000 HEK293T cells in 1 mL of DMEM medium (Gbico, 11965-092) were seeded into a 6-well plate (Corning 3516) , followed by being placed overnight in a constant incubator at 37°C, 5% CO2. 3 µL X-tremeGENE™ 9 DNA Transfection Reagent (Roche #06365787001), and 1 µg IRAK4 plasmid were added to 200 µL Opti-MEM (Gibico 31985062), followed by gentle mixing. The 6-well plate that had been incubated overnight was taken out and allowed to stand at room temperature for 15 minutes, followed by dropwise addition to the 6-well plate. After transient transfection for 6 hours, cells were digested with trypsin (Gibco, 25200-056) for one minute, followed by centrifugation at 1000 rpm for 3 minutes. 5000 HEK293T cells in 40 µL DMEM medium were seeded into a 384-well plate (Corning 3765), followed by being placed overnight in a constant incubator at 37°C, 5% CO2. Then, 40 nL of the compound was added to the 384-well plate using an Echo 655 Liquid Handler, with a highest final concentration of 10 µM, and a 1:3 serial dilution to give a total of 10 concentrations, followed by incubation at 37°C, 5% CO2 for 24 hours. The 384-well plate was removed and equilibrated to room temperature. 40 µL Nano-Glo® HiBiT Lytic Detection System (Promega N3030) was added to each well. After incubation at room temperature for 15 minutes, the fluorescence values were recorded using EnVision Xcite Multilabel Reader (PerkinElmer 2105-0020). Data were fitted and analyzed using Prism 9.3 software with non-linear regression (non-liner inhibitor(Bell-shaped)) and a 4 parameter, with parameters as follows: • Span1=Plateau1[…] • Span2=Plateau2-Dip Section1 = Span1/(1+10^(∧)((LogEC50_1−X)*nH1)) [formula] Section2 = Span2/(1+10^(∧)((X−LogEC50_2)*nH2)) [formula]
(§1) The equation is as follows: Y=Dip+Section1+Section2.
Background: HiBiT is a short tag that completes a luciferase, so light tracks the accessible tagged protein.

In experiment [2] the target is T1, IRAK4. As to the kind of experiment: cell-based. Type of experiment: cell-based. Further details: endogenous in cells; host or cells: THP-1 cells. The settings on record: for Dmax: THP-1; for DC50: WB, THP-1 cells, 24 hours incubation. As for the experimental part: The degradation level of IRAK4 in THP-1 cells was detected by Western Blot technique. 1,000,000 THP-1 cells were seeded in a 12-well plate (Corning 3513) with 1 mL per well. A stock solution of the compound in 1000× gradient dilution was prepared, with a maximum concentration of 300 µM, and serially diluted with DMSO in 1:3, for a total of 9 doses. The compound in 1000× gradient dilution was added to the 12-well plate with 1 µL per well. After incubation under a condition of 37°C, 5% CO2 for 24 hours, the cells were collected into a 2 mL centrifuge tube, and centrifuged at 5,000 rpm for 5 minutes. The supernatant was discarded. 100 µL RIPA lysis solution (Beyotime, P0013C) was added. After mixing well, the cells were lysed on ice for 10 min, and centrifuged at 14,000 rpm at 4°C for 10 min. The supernatant was collected. Protein content was determined using BCA (Solarbio, PC0020-10*50T). 75 µL of the supernatant was taken, and 25 µL NuPAGE LDS Sample Buffer (4X) (Thermo B0007) (with 5% β-mercaptoethanol added before use) was added to each tube to prepare samples, followed by heating in a metal bath at 100°C for 5 min. 20 µL was loaded into a 4-12% Bis-Tris gel (Invitrogen, WG1402BOX) to prepare 1x NuPAGE™ MOPS buffer (Invitrogen, NP0001). The electrophoresis apparatus was set to a constant voltage of 120V for 1.5 hours. 1x NuPAGE™ MOPS SDS electrophoresis buffer (20X) (Invitrogen, NP0001) was prepared. The electrophoresis apparatus was set to a constant current of 300 mA for 100 minutes. The protein was transferred to a PVDF membrane (Millipore, IPVH00010). The PVDF membrane was blocked with a blocking solution (Licor, 927-60001) at room temperature for 1 h, IRAK4 antibody (Abcam ab32511) was diluted 1:1,000, GAPDH (Abcam ab8245) was diluted 1:3,000, and then the antibody was incubated overnight at 4°C. The next day, the membrane was washed three times with 1× TBST (Elabscience E-BC-R335), for 5 min each time. Secondary antibodies IR Dye 800 CW Goat anti-rabbit (Licor #926-32211) and IRDye® 680RD Goat anti-Mouse (Licor #926-68070) were diluted 1:10,000, followed by incubation in the dark at room temperature for 1 h. The membrane was washed three times with TBST, for 5 min each time. Using Odyssey imaging system Li-cor Odyssey Clx, signals were detected and data were analyzed. Data were analyzed using GraphPad (Prism 9.3) software with non-linear regression (non-liner inhibitor(Bell-shaped)) and a 4 parameter, with parameters as follows: • Span 1 =Plateau1-Dip • Span2=Plateau2-Dip Section1 = Span1/(1+10^(∧)((LogEC50_1−X)*nH1)) [formula] Section2 = Span2/(1+10^(∧)((X−LogEC50_2)*nH2)) [formula]
as §1

In the case of `Cn1c(=O)n(C2CCC(=O)NC2=O)c2cccc(N3CCC(N4CCN(C[C@H]5CC[C@H](n6nc(C(F)F)c7cc(-c8ccc9cc(C(N)=O)cnn89)ncc76)CC5)CC4)CC3)c21` (some centres unmarked) [Compound 2], the results for the Dmax at IRAK4 [1] and on IRAK4 [2] were more than 80% and more than 70%, respectively. For the same molecule, the DC50 at IRAK4 [1] is less than 0.0005 µM; at IRAK4 [2], less than 0.01 µM.
At IRAK4 [1], `Cn1c(=O)n(C2CCC(=O)NC2=O)c2cccc(C#CCOC3CCN(C[C@H]4CC[C@H](n5nc(C(F)F)c6cc(-c7ccc8cc(C(N)=O)cnn78)ncc65)CC4)CC3)c21` (some centres unmarked) [Compound 8] returned a Dmax of 70 to 80% and a DC50 of less than 0.0005 µM.
Turning to `C[C@@H]1CC2(CCN(c3cccc4c3n(C)c(=O)n4C3CCC(=O)NC3=O)CC2)CN1C[C@H]1CC[C@H](n2nc(C(F)F)c3cc(-c4ccc5cc(C(N)=O)cnn45)ncc32)CC1` (some centres unmarked) [Compound 17], on IRAK4 [2], the Dmax was more than 70% and the DC50 is more than 0.03 µM.
Taken in the same sequence, the figures for `Cn1nc(C2CCC(=O)NC2=O)c2cccc(-c3cnn(C4CCN(C[C@H]5CC[C@H](n6nc(C(F)F)c7cc(-c8ccc9cc(C(N)=O)cnn89)ncc76)CC5)CC4)c3)c21` (some centres unmarked) [Compound 10] were more than 70% and less than 0.01 µM.
Take `Cn1c(=O)n(C2CCC(=O)NC2=O)c2cccc(N3CCN(C4CCN(C[C@H]5CC[C@H](n6nc(C(F)F)c7cc(-c8ccc9cc(C(N)=O)cnn89)ncc76)CC5)CC4)CC3)c21` (some centres unmarked) [Compound 5]: on IRAK4 [1], the Dmax is more than 80% and the DC50 is less than 0.0005 µM. At IRAK4 [2], the Dmax was 60 to 70% and the DC50 was less than 0.01 µM.
For `Cn1c(=O)n(C2CCC(=O)NC2=O)c2cccc(N[C@H]3CC[C@H](N(C)C[C@H]4CC[C@H](n5nc(C(F)F)c6cc(-c7ccc8cc(C(N)=O)cnn78)ncc65)CC4)CC3)c21` (some centres unmarked) [Compound 7], on IRAK4 [1], the Dmax fell in the range of 60 to 70% and the DC50 is less than 0.0005 µM.
At IRAK4 [1], `Cn1c(=O)n(C2CCC(=O)NC2=O)c2cccc(N3CCN(C[C@H]4CC[C@H](n5nc(C(F)F)c6cc(-c7ccc8cc(C(N)=O)cnn78)ncc65)CC4)CC3)c21` (some centres unmarked) [Compound 4] came in with a Dmax of less than 60% and a DC50 of 0.001 to 0.005 µM.
Turning to `C[C@H]1CN(C[C@H]2CC[C@H](n3nc(C(F)F)c4cc(-c5ccc6cc(C(N)=O)cnn56)ncc43)CC2)CCN1C1CCN(c2cccc3c2n(C)c(=O)n3C2CCC(=O)NC2=O)CC1` (some centres unmarked) [Compound 22], on IRAK4 [2], the Dmax is less than 60% and the DC50 was more than 0.03 µM.
Taken in the same sequence, the figures for `Cn1nc(C2CCC(=O)NC2=O)c2cccc(N3CCC(N4CCN(C[C@H]5CC[C@H](n6nc(C(F)F)c7cc(-c8ccc9cc(C(N)=O)cnn89)ncc76)CC5)CC4)CC3)c21` (some centres unmarked) [Compound 19] were more than 70% and less than 0.01 µM.
On IRAK4 [1], `Cn1c(=O)n(C2CCC(=O)NC2=O)c2cccc(N3CCC4(CCN(C[C@H]5CC[C@H](n6nc(C(F)F)c7cc(-c8ccc9cc(C(N)=O)cnn89)ncc76)CC5)C4)CC3)c21` (some centres unmarked) [Compound 6] came in with a Dmax of more than 80% and a DC50 of less than 0.0005 µM. On IRAK4 [2], this molecule returned a Dmax of more than 70% and a DC50 of less than 0.01 µM.
Consider `Cn1c(=O)n(C2CCC(=O)NC2=O)c2cccc(N3CCC4(CCN(C[C@H]5CC[C@H](n6nc(C(F)F)c7cc(-c8ccc9cc(C(N)=O)cnn89)ncc76)CC5)CC4)C3)c21` (some centres unmarked) [Compound 3], for which, on IRAK4 [1], the Dmax lay within 70 to 80% and the DC50 was less than 0.0005 µM.
For `C[C@H]1CN(C2CCN(c3cccc4c3n(C)c(=O)n4C3CCC(=O)NC3=O)CC2)CCN1C[C@H]1CC[C@H](n2nc(C(F)F)c3cc(-c4ccc5cc(C(N)=O)cnn45)ncc32)CC1` (some centres unmarked) [Compound 13], on IRAK4 [2], the Dmax was more than 70% and the DC50 is more than 0.03 µM.
On to `Cn1nc(C2CCC(=O)NC2=O)c2cccc(N3CCC4(CCN(C[C@H]5CC[C@H](n6nc(C(F)F)c7cc(-c8ccc9cc(C(N)=O)cnn89)ncc76)CC5)C4)CC3)c21` (some centres unmarked) [Compound 20], for which, on IRAK4 [2], the Dmax is less than 60% and the DC50 was in the range of 0.01 to 0.03 µM.
Taken in the same sequence, the figures for `C[C@@H]1CN(C2CCN(c3cccc4c3n(C)c(=O)n4C3CCC(=O)NC3=O)CC2)CCN1C[C@H]1CC[C@H](n2nc(C(F)F)c3cc(-c4ccc5cc(C(N)=O)cnn45)ncc32)CC1` (some centres unmarked) [Compound 12] were 60 to 70% and more than 0.03 µM.
Turning to `C[C@H]1CN(c2cccc3c2n(C)c(=O)n3C2CCC(=O)NC2=O)CCN1C[C@H]1CC[C@H](n2nc(C(F)F)c3cc(-c4ccc5cc(C(N)=O)cnn45)ncc32)CC1` (some centres unmarked) [Compound 9], the DC50 on IRAK4 [2] (read-out: DC50) is more than 0.03 µM.
On to `Cn1c(=O)n(C2CCC(=O)NC2=O)c2cccc(N3CCC4(CCN(C[C@H]5CC[C@H](n6nc(C(F)F)c7cc(-c8ccc9cc(C(N)=O)cnn89)ncc76)CC5)CC4)CC3)c21` (some centres unmarked) [Compound 1], for which the figures for the Dmax at IRAK4 [1] and at IRAK4 [2] were more than 80% and more than 70%, respectively. Besides, the DC50 was less than 0.0005 µM on IRAK4 [1] and less than 0.01 µM at IRAK4 [2].
At IRAK4 [2], `Cn1c(=O)n(C2CCC(=O)NC2=O)c2cccc(-c3cnn(C4CCN(C[C@H]5CC[C@H](n6nc(C(F)F)c7cc(-c8ccc9cc(C(N)=O)cnn89)ncc76)CC5)CC4)c3)c21` (some centres unmarked) [Compound 11] came in with a Dmax of less than 60% and a DC50 of more than 0.03 µM.
